Legend:
[1] = target: T1, metabotropic type 5 glutamate receptor (mGluR5) (Homo sapiens, UniProt P41594); assay: GCaMP6s calcium imaging dose-response (AUC) in primary human OPCs, endogenous receptor; type: cell-based
T1 construct: gene GRM5

[2] = system: T2, muscarinic acetylcholine receptor M3 (M1/3R); assay: GCaMP6s calcium imaging dose-response (AUC) in primary human OPCs, endogenous M1/M3 receptors; type: cell-based
T2 construct: gene CHRM3

T1 sequence (P41594 21-1212): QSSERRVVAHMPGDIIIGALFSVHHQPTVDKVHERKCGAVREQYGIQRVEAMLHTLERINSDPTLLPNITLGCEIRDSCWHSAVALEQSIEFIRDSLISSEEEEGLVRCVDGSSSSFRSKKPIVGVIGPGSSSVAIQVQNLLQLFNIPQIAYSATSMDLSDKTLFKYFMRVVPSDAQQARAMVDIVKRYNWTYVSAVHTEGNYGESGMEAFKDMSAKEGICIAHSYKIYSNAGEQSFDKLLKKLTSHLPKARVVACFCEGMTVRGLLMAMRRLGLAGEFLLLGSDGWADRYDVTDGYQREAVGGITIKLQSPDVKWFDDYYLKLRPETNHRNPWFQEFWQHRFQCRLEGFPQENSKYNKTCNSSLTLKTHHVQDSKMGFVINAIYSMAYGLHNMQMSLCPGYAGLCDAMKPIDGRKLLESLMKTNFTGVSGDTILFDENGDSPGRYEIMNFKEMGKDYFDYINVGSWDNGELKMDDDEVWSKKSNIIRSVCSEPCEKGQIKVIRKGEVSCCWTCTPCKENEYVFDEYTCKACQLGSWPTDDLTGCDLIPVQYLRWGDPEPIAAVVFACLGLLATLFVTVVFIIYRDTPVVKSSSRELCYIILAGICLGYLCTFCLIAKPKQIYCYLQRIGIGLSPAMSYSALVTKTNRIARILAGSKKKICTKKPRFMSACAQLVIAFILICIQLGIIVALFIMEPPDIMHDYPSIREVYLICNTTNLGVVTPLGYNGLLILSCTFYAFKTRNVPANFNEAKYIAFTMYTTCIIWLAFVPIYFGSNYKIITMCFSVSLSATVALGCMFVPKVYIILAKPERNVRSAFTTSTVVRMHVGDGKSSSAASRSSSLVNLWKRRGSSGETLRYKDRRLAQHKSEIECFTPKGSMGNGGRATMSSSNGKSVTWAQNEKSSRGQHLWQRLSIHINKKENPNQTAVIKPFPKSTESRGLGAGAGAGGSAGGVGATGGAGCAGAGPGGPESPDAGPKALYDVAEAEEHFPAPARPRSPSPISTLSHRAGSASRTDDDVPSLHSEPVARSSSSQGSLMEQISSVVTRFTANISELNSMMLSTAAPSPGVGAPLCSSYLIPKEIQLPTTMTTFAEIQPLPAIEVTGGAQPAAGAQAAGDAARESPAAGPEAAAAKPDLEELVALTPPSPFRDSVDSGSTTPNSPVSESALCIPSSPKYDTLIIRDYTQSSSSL

EC50 [1] [µM]	SMILES	EC50 [2] [µM]
1300	NC(C(=O)O)c1cc(O)ccc1Cl (centres unmarked) [CHPG]	–
–	C[N+](C)(C)CC#CCN1CCCC1=O [Oxo-M]	2.2
